Assay results from ChEMBL document CHEMBL3045996, “Use of classical and 3-D QSAR to examine the hydration state of juvenile hormone esterase inhibitors” (Bioorg Med Chem, 2003).

Assay: Inhibition of juvenile hormone esterase

pIC50	SMILES
5.14	CCCCCC/C=C/C(=O)C(F)(F)F
5.17	CCCCCCCCC(=O)C(F)(F)F
5.34	O=C(CSCc1ccc(Cl)cc1)C(F)(F)F
4.9	Cc1ccccc1CSCC(=O)C(F)(F)F
5.1	Cc1cccc(CSCC(=O)C(F)(F)F)c1
5.2	Cc1ccc(CSCC(=O)C(F)(F)F)cc1
5.8	CCCCCCCCCCCCc1ccc(CSCC(=O)C(F)(F)F)cc1
6.77	O=C(CSCCCc1ccccc1)C(F)(F)F
4.21	O=C(C[S+]([O-])c1ccccc1)C(F)(F)F (configuration not stated)
7.64	CC(C)(C)c1ccc([S+]([O-])CC(=O)C(F)(F)F)cc1 (configuration not stated)
3.98	O=C(CS(=O)(=O)c1ccccc1)C(F)(F)F
6.31	O=C(CS(=O)(=O)CCc1ccccc1)C(F)(F)F
9.06	CCCCCCCCSC(C)C(=O)C(F)(F)F (configuration not stated)
5.32	CCCCCCCCSC(CC)C(=O)C(F)(F)F (configuration not stated)
4.09	CCCCCCCCSC(CCC)C(=O)C(F)(F)F (configuration not stated)
4.09	CCCCCCCCSC(C(=O)C(F)(F)F)c1ccccc1 (configuration not stated)
8.07	CCCCCCCC(C)SC(C)C(=O)C(F)(F)F (configuration not stated)
5.89	COc1cccc(SCC(=O)C(F)(F)F)c1
5.08	O=C(CSc1ccc(F)cc1)C(F)(F)F
5.89	O=C(CSc1ccc(Cl)cc1)C(F)(F)F
6.39	O=C(CSc1ccc(Br)cc1)C(F)(F)F
6.96	Cc1ccc(SCC(=O)C(F)(F)F)cc1
8.12	CC(C)(C)c1ccc(SCC(=O)C(F)(F)F)cc1
5.21	O=C(CSc1ccc(O)cc1)C(F)(F)F
5.89	COc1ccc(SCC(=O)C(F)(F)F)cc1
7.05	CN(C)c1ccc(SCC(=O)C(F)(F)F)cc1
7.64	O=C(CSc1cc(Cl)ccc1Cl)C(F)(F)F

pIC50	SMILES
7.11	O=C(CSc1c(Cl)cccc1Cl)C(F)(F)F
7.7	O=C(CSc1ccc(Cl)c(Cl)c1)C(F)(F)F
6.04	Cc1ccc(SCC(=O)C(F)(F)F)c(C)c1
6.77	Cc1ccc(C)c(SCC(=O)C(F)(F)F)c1
6.92	Cc1cccc(C)c1SCC(=O)C(F)(F)F
7.96	Cc1ccc(SCC(=O)C(F)(F)F)cc1C
5.74	Cc1cc(C)cc(SCC(=O)C(F)(F)F)c1
8.52	Cc1cc(C(C)(C)C)ccc1SCC(=O)C(F)(F)F
7.89	Cc1cc(SCC(=O)C(F)(F)F)ccc1Br
7.49	O=C(CSc1cc(Cl)c(Cl)cc1Cl)C(F)(F)F
5.92	O=C(CSc1c(F)c(F)cc(F)c1F)C(F)(F)F
7.8	O=C(CSc1c(Cl)c(Cl)c(Cl)c(Cl)c1Cl)C(F)(F)F
4.96	O=C(CSc1c(F)c(F)c(F)c(F)c1F)C(F)(F)F
4.82	O=C(CSCc1ccccc1)C(F)(F)F
5.18	O=C(CSCc1ccccc1Cl)C(F)(F)F
5.28	O=C(CSC1CCCCC1)C(F)(F)F
8.35	CC(C)=CCCC(C)CCSCC(=O)C(F)(F)F (configuration not stated)
8.12	COC(C)(C)CCCC(C)CCSCC(=O)C(F)(F)F (configuration not stated)
8.51	CC(C)=CCC/C(C)=C\CCSCC(=O)C(F)(F)F
8.49	COC(C)(C)CCC/C(C)=C\CCSCC(=O)C(F)(F)F
5.06	O=C(CSc1ccccc1)C(F)(F)F
5.68	O=C(CSc1ccccc1Cl)C(F)(F)F
6.17	O=C(CSc1ccccc1Br)C(F)(F)F
5.37	Cc1ccccc1SCC(=O)C(F)(F)F
5.54	CCc1ccccc1SCC(=O)C(F)(F)F
6.47	CC(C)c1ccccc1SCC(=O)C(F)(F)F
5.7	COc1ccccc1SCC(=O)C(F)(F)F

pIC50	SMILES
5.15	O=C(CSc1ccccc1CO)C(F)(F)F
6.66	O=C(CSc1ccccc1Oc1ccccc1)C(F)(F)F
7.52	O=C(CSc1ccccc1Nc1ccccc1)C(F)(F)F
6.4	O=C(CSc1cccc(Cl)c1)C(F)(F)F
6.06	O=C(CSc1cccc(Br)c1)C(F)(F)F
5.6	O=C(CSc1cccc(C(F)(F)F)c1)C(F)(F)F
6.89	Cc1cccc(SCC(=O)C(F)(F)F)c1
4.15	COc1ccc(C(=O)C(F)(F)F)cc1
6.52	CC(C/C=C\c1ccc(C(=O)C(F)(F)F)cc1)CCC1OC1(C)C (configuration not stated)
6.7	CC(C)=CCCC(C)C/C=C\c1ccc(C(=O)C(F)(F)F)cc1 (configuration not stated)
3.3	CC(CCC1OC1(C)C)CC1OC1c1ccc(C(=O)C(F)(F)F)cc1 (configuration not stated)
4.1	CCCCCC/C=C\C(=O)C(F)(F)F
6.06	CCCCCCCC/C=C/C(=O)C(F)(F)F
5.49	CCCCC#CC(=O)C(F)(F)F
7.24	CCCCCCCCC#CC(=O)C(F)(F)F
7.57	CCCCCCCCCCC#CC(=O)C(F)(F)F
8	CCCCCCCCCCCCC#CC(=O)C(F)(F)F
5.27	O=C(C#Cc1ccccc1)C(F)(F)F
6.11	CCCCCSCC(=O)C(F)(F)F
5.3	CC(C)(C)SCC(=O)C(F)(F)F
5.8	CCC(C)CSCC(=O)C(F)(F)F (configuration not stated)
5.6	CC(C)CCSCC(=O)C(F)(F)F
8.09	CCCCCCCSCC(=O)C(F)(F)F
7.98	CCCCC(C)(C)CC(C)CSCC(=O)C(F)(F)F (configuration not stated)
8.43	CCCCCCCCCSCC(=O)C(F)(F)F
9.77	CCCCCCCC(C)SCC(=O)C(F)(F)F (configuration not stated)
8.24	CCCCCCCC(CC)SCC(=O)C(F)(F)F (configuration not stated)

pIC50	SMILES
7.37	CCCCCCCCCCCSCC(=O)C(F)(F)F
7.89	CCCCCCCC(CCC)SCC(=O)C(F)(F)F (configuration not stated)
7.16	CCCCCCCC(CCCC)SCC(=O)C(F)(F)F (configuration not stated)
7.35	CCCCCCCCCCCCCSCC(=O)C(F)(F)F
6.4	CCCCCCCCCCCCCCSCC(=O)C(F)(F)F
6.2	CCCCCCCCCCCCCCCCSCC(=O)C(F)(F)F
6.3	CCCCCCCCCCCCCCCCCCSCC(=O)C(F)(F)F
5.01	O=C(CSC1CCCC1)C(F)(F)F
7.21	CCCCCCCCCCCCS(=O)(=O)CC(=O)C(F)(F)F
7.37	CCCCCCCC[S+]([O-])CC(=O)C(F)(F)F (configuration not stated)
7.82	CCCCCCCCCCCCSCC(=O)C(F)(F)F
7.36	CCCCCCCCCCS(=O)(=O)CC(=O)C(F)(F)F
6.9	CCCCCCCCS(=O)(=O)CC(=O)C(F)(F)F
6.4	CCCCCCC#CC(=O)C(F)(F)F
5.82	CCCCSCC(=O)C(F)(F)F
5.49	O=C(CSCCc1ccccc1)C(F)(F)F
6.66	CCCCCCCCCCC(=O)C(F)(F)F
5.14	CCCCCCCCCCCCCCC(=O)C(F)(F)F
8.62	CCCCCCCCSCC(=O)C(F)(F)F
5.41	CCCCCCCCCCCCCC(=O)C(F)(F)F
7	CCCCCCCCCCCCC(=O)C(F)(F)F
4.85	CCCCCCCCCCCCCCCCCC(=O)C(F)(F)F
3.66	CCCCCCC(=O)C(F)(F)F
4.17	CCCCCCCC(=O)C(F)(F)F

SMILES	pIC50
CCCCCCCCCCSCC(=O)C(F)(F)F	7.7
O=C(c1ccccc1)C(F)(F)F	3.04
